These results are taken from patent US20240018123A1, “COMPOUND FOR INHIBITING OR DISINTEGRATING ANDROGEN RECEPTOR, AND PHARMACEUTICAL USE THEREOF” (KOREA RESEARCH INSTITUTE OF CHEMICAL TECHNOLOGY, priority 2020, published 2024).

The term CC50 denotes the concentration at which the toxic effect on the cells reaches its halfway point.

This series has as its system VCaP cells. Kind of series: Cytotoxicity assessment (Cell-titer-glo cell viability), VCaP. Conditions: read-out: VCaP (CC50); VCaP cells, 6 days of treatment, Cell-titer-glo, vs DMSO.

Description: In order to evaluate the androgen receptor (AR) cytotoxicity of the compounds according to the present invention, the following experiment was conducted. Specifically, 1.5×10^3 (LNCaP) or 4×10^3 (VCaP, 22RV1), respectively, of LNCaP, VCaP, and 22RV1 cells were injected into each well of a 96-well plate. The next day, each well was treated with the compound at a final concentration of 3 nM, 10 nM, 30 nM, 100 nM, 300 nM, 1 μM, 3 μM, and 10 μM. […] After 6 days of treatment, Cell-titer-glo (promega) was treated and reacted for 10 minutes, and cell viability was measured with a multimode plate reader (PerkinElmer, Inc.), and the change was quantified compared to when DMSO was treated.

As to `CC1(C)C(NC(=O)c2ccc(N3CC4CN(CC5CCN(C(=O)COc6ccc7nnn(C8CCC(=O)NC8=O)c(=O)c7c6)CC5)CC4C3)cc2)C(C)(C)C1Oc1ccc(C#N)c(Cl)c1` (stereo not drawn) [Example 137, N-((1r,3r)-3-(3-chloro-4-cyanophenoxy)-2,2,4,4-tetramethylcyclobutyl)-4-(5-((1-(2-((3-(2,6-dioxopiperidin-3-yl)-4-oxo-3,4-dihydrobenzo[d][1,2,3]triazin-6-yl)oxy)acetyl)piperidin-4-yl)methyl)hexahydropyrrolo[3,4-c]pyrrol-2(1H)-yl)benzamide], the CC50 is 94 nM.
As for `CC1(C)C(NC(=O)c2ccc(N3CC4CN(CC5CCN(C(=O)CNc6ccc7nnn(C8CCC(=O)NC8=O)c(=O)c7c6)CC5)CC4C3)cc2)C(C)(C)C1Oc1ccc(C#N)c(Cl)c1` (stereo not drawn) [Example 138, N-((1r,3r)-3-(3-chloro-4-cyanophenoxy)-2,2,4,4-tetramethylcyclobutyl)-4-(5-((1-((3-(2,6-dioxopiperidin-3-yl)-4-oxo-3,4-dihydrobenzo[d][1,2,3]triazin-6-yl)glycyl)piperidin-4-yl)methyl)hexahydropyrrolo[3,4-c]pyrrol-2(1H)-yl)benzamide], the CC50 turned out to be 63.7 nM.
For the compound `CC1(C)C(NC(=O)c2ccc(N3CC4CN(CC5CCN(C(=O)C6CCN(c7ccc8nnn(C9CCC(=O)NC9=O)c(=O)c8c7)CC6)CC5)CC4C3)cc2)C(C)(C)C1Oc1ccc(C#N)c(Cl)c1` (stereo not drawn) [Example 139, N-((1r,3r)-3-(3-chloro-4-cyanophenoxy)-2,2,4,4-tetramethylcyclobutyl)-4-(5-((1-(1-(3-(2,6-dioxopiperidin-3-yl)-4-oxo-3,4-dihydrobenzo[d][1,2,3]triazin-6-yl)piperidine-4-carbonyl)piperidin-4-yl)methyl)hexahydropyrrolo[3,4-c]pyrrol-2(1H)-yl)benzamide], the CC50 was 69.5 nM.
With `CC1(C)[C@H](NC(=O)c2ccc(N3CC4CN(CC5CCN(C(=O)C6CN(c7ccc8nnn(C9CCC(=O)NC9=O)c(=O)c8c7)C6)CC5)CC4C3)cc2)C(C)(C)[C@H]1Oc1ccc(C#N)c(Cl)c1` (stereo partly drawn) [Example 140, N-((1r,3r)-3-(3-chloro-4-cyanophenoxy)-2,2,4,4-tetramethylcyclobutyl)-4-(5-((1-(1-(3-(2,6-dioxopiperidin-3-yl)-4-oxo-3,4-dihydrobenzo[d][1,2,3]triazin-6-yl)azetidine-3-carbonyl)piperidin-4-yl)methyl)hexahydropyrrolo[3,4-c]pyrrol-2(1H)-yl)benzamide] the figure was 30 nM; with `CC1(C)C(NC(=O)c2ccc(C#CC3CCN(C(=O)C4CCN(c5ccc6nnn(C7CCC(=O)NC7=O)c(=O)c6c5)CC4)CC3)cc2)C(C)(C)C1Oc1ccc(C#N)c(Cl)c1` (stereo not drawn) [Example 141, N-((1r,3r)-3-(3-chloro-4-cyanophenoxy)-2,2,4,4-tetramethylcyclobutyl)-4-((1-(1-(3-(2,6-dioxopiperidin-3-yl)-4-oxo-3,4-dihydrobenzo[d][1,2,3]triazin-6-yl)piperidine-4-carbonyl)piperidin-4-yl)ethynyl)benzamide], 11.5 nM; with `CC1(C)C(NC(=O)c2ccc(C#CC3CCN(c4ccc5nnn(C6CCC(=O)NC6=O)c(=O)c5c4)CC3)cc2)C(C)(C)C1Oc1ccc(C#N)c(Cl)c1` (stereo not drawn) [Example 142, N-((1r,3r)-3-(3-chloro-4-cyanophenoxy)-2,2,4,4-tetramethylcyclobutyl)-4-((1-(3-(2,6-dioxopiperidin-3-yl)-4-oxo-3,4-dihydrobenzo[d][1,2,3]triazin-6-yl)piperidin-4-yl)ethynyl)benzamide], 7.1 nM.
For `CC1(C)[C@H](NC(=O)c2cnc(N3CCN(CC4CCN(C(=O)C5CCN(c6ccc7nnn(C8CCC(=O)NC8=O)c(=O)c7c6)CC5)CC4)CC3)nc2)C(C)(C)[C@H]1Oc1ccc(C#N)c(Cl)c1` (stereo partly drawn) [Example 145, N-((1r,3r)-3-(3-chloro-4-cyanophenoxy)-2,2,4,4-tetramethylcyclobutyl)-2-(4-((1-(1-(3-(2,6-dioxopiperidin-3-yl)-4-oxo-3,4-dihydrobenzo[d][1,2,3]triazin-6-yl)piperidine-4-carbonyl)piperidin-4-yl)methyl)piperazin-1-yl)pyrimidine-5-carboxamide] the value was ~10 nM.
Turning to `CC1(C)C(NC(=O)c2cnc(N3CCN(CC4CCN(C(=O)C5CN(c6ccc7nnn(C8CCC(=O)NC8=O)c(=O)c7c6)C5)CC4)CC3)nc2)C(C)(C)C1Oc1ccc(C#N)c(Cl)c1` (stereo not drawn) [Example 146, N-((1r,3r)-3-(3-chloro-4-cyanophenoxy)-2,2,4,4-tetramethylcyclobutyl)-2-(4-((1-(1-(3-(2,6-dioxopiperidin-3-yl)-4-oxo-3,4-dihydrobenzo[d][1,2,3]triazin-6-yl)azetidine-3-carbonyl)piperidin-4-yl)methyl)piperazin-1-yl)pyrimidine-5-carboxamide], the CC50 was ~10 nM.
Consider `CC1(C)C(NC(=O)c2cnc(N3CCN(CC4CCN(C(=O)CNc5ccc6nnn(C7CCC(=O)NC7=O)c(=O)c6c5)CC4)CC3)nc2)C(C)(C)C1Oc1ccc(C#N)c(Cl)c1` (stereo not drawn) [Example 147, N-((1r,3r)-3-(3-chloro-4-cyanophenoxy)-2,2,4,4-tetramethylcyclobutyl)-2-(4-((1-((3-(2,6-dioxopiperidin-3-yl)-4-oxo-3,4-dihydrobenzo[d][1,2,3]triazin-6-yl)glycyl)piperidin-4-yl)methyl)piperazin-1-yl)pyrimidine-5-carboxamide], for which the CC50 was ~10 nM.
With `CC1(C)C(NC(=O)c2cnc(N3CCN(CC4CCN(C(=O)COc5ccc6nnn(C7CCC(=O)NC7=O)c(=O)c6c5)CC4)CC3)nc2)C(C)(C)C1Oc1ccc(C#N)c(Cl)c1` (stereo not drawn) [Example 148, N-((1r,3r)-3-(3-chloro-4-cyanophenoxy)-2,2,4,4-tetramethylcyclobutyl)-2-(4-((1-(2-((3-(2,6-dioxopiperidin-3-yl)-4-oxo-3,4-dihydrobenzo[d][1,2,3]triazin-6-yl)oxy)acetyl)piperidin-4-yl)methyl)piperazin-1-yl)pyrimidine-5-carboxamide] the figure was ~10 nM; with `CC1(C)[C@H](NC(=O)c2ccc(-n3cc(CNc4ccc5nnn(C6CCC(=O)NC6=O)c(=O)c5c4)nn3)cc2)C(C)(C)[C@H]1Oc1ccc(C#N)c(Cl)c1` (stereo partly drawn) [Example 149, N-((1r,3r)-3-(3-chloro-4-cyanophenoxy)-2,2,4,4-tetramethylcyclobutyl)-4-(4-(((3-(2,6-dioxopiperidin-3-yl)-4-oxo-3,4-dihydrobenzo[d][1,2,3]triazin-6-yl)amino)methyl)-1H-1,2,3-triazol-1-yl)benzamide], > 10000 nM.
Take `CC1(C)C(NC(=O)c2ccc(-n3cc(CNC(=O)C4CCN(c5ccc6nnn(C7CCC(=O)NC7=O)c(=O)c6c5)CC4)nn3)cc2)C(C)(C)C1Oc1ccc(C#N)c(Cl)c1` (stereo not drawn) [Example 150, N-((1-(4-(((1r,3r)-3-(3-chloro-4-cyanophenoxy)-2,2,4,4-tetramethylcyclobutyl)carbamoyl)phenyl)-1H-1,2,3-triazol-4-yl)methyl)-1-(3-(2,6-dioxopiperidin-3-yl)-4-oxo-3,4-dihydrobenzo[d][1,2,3]triazin-6-yl)piperidine-4-carboxamide]: the CC50 is 24.4 nM.
For `CC1(C)C(NC(=O)c2ccc(-n3cc(CNC(=O)C4CN(c5ccc6nnn(C7CCC(=O)NC7=O)c(=O)c6c5)C4)nn3)cc2)C(C)(C)C1Oc1ccc(C#N)c(Cl)c1` (stereo not drawn) [Example 151, N-((1-(4-(((1r,3r)-3-(3-chloro-4-cyanophenoxy)-2,2,4,4-tetramethylcyclobutyl)carbamoyl)phenyl)-1H-1,2,3-triazol-4-yl)methyl)-1-(3-(2,6-dioxopiperidin-3-yl)-4-oxo-3,4-dihydrobenzo[d][1,2,3]triazin-6-yl)azetidine-3-carboxamide] the value was 25.6 nM; for `CC1(C)C(NC(=O)c2ccc(-n3cc(CNC(=O)CNc4ccc5nnn(C6CCC(=O)NC6=O)c(=O)c5c4)nn3)cc2)C(C)(C)C1Oc1ccc(C#N)c(Cl)c1` (stereo not drawn) [Example 152, N-((1r,3r)-3-(3-chloro-4-cyanophenoxy)-2,2,4,4-tetramethylcyclobutyl)-4-(4-((2-((3-(2,6-dioxopiperidin-3-yl)-4-oxo-3,4-dihydrobenzo[d][1,2,3]triazin-6-yl)amino)acetamido)methyl)-1H-1,2,3-triazol-1-yl)benzamide], 233 nM; for `CC1(C)C(NC(=O)c2ccc(-n3cc(CCNc4ccc5nnn(C6CCC(=O)NC6=O)c(=O)c5c4)nn3)cc2)C(C)(C)C1Oc1ccc(C#N)c(Cl)c1` (stereo not drawn) [Example 153, N-((1r,3r)-3-(3-chloro-4-cyanophenoxy)-2,2,4,4-tetramethylcyclobutyl)-4-(4-(2-((3-(2,6-dioxopiperidin-3-yl)-4-oxo-3,4-dihydrobenzo[d][1,2,3]triazin-6-yl)amino)ethyl)-1H-1,2,3-triazol-1-yl)benzamide], 45.4 nM.
For `CC1(C)C(NC(=O)c2ccc(-n3cc(CCNC(=O)C4CCN(c5ccc6nnn(C7CCC(=O)NC7=O)c(=O)c6c5)CC4)nn3)cc2)C(C)(C)C1Oc1ccc(C#N)c(Cl)c1` (stereo not drawn) [Example 154, N-(2-(1-(4-(((1r,3r)-3-(3-chloro-4-cyanophenoxy)-2,2,4,4-tetramethylcyclobutyl)carbamoyl)phenyl)-1H-1,2,3-triazol-4-yl)ethyl)-1-(3-(2,6-dioxopiperidin-3-yl)-4-oxo-3,4-dihydrobenzo[d][1,2,3]triazin-6-yl)piperidine-4-carboxamide] the value was 41.6 nM; for `CC1(C)C(NC(=O)c2ccc(-n3cc(CCNC(=O)C4CN(c5ccc6nnn(C7CCC(=O)NC7=O)c(=O)c6c5)C4)nn3)cc2)C(C)(C)C1Oc1ccc(C#N)c(Cl)c1` (stereo not drawn) [Example 155, N-(2-(1-(4-(((1r,3r)-3-(3-chloro-4-cyanophenoxy)-2,2,4,4-tetramethylcyclobutyl)carbamoyl)phenyl)-1H-1,2,3-triazol-4-yl)ethyl)-1-(3-(2,6-dioxopiperidin-3-yl)-4-oxo-3,4-dihydrobenzo[d][1,2,3]triazin-6-yl)azetidine-3-carboxamide], 177 nM; for `CC1(C)C(NC(=O)c2ccc(-n3cc(CCNC(=O)CNc4ccc5nnn(C6CCC(=O)NC6=O)c(=O)c5c4)nn3)cc2)C(C)(C)C1Oc1ccc(C#N)c(Cl)c1` (stereo not drawn) [Example 156, N-((1r,3r)-3-(3-chloro-4-cyanophenoxy)-2,2,4,4-tetramethylcyclobutyl)-4-(4-(2-(2-((3-(2,6-dioxopiperidin-3-yl)-4-oxo-3,4-dihydrobenzo[d][1,2,3]triazin-6-yl)amino)acetamido)ethyl)-1H-1,2,3-triazol-1-yl)benzamide], 936 nM.
